Experimental data: patent publication US8889680B2, “Treatment or prevention of fungal infections with PDK1 inhibitors” (priority 2010, dated 2014)

Tests used:
[1] = system: S. cerevisiae pkh and ypk mutants; test: Disk diffusion assay, S. cerevisiae mutants; assay type: cell-based
Method: Plates were incubated at 30° C. for 3 days prior to photography.
The antifungal activity of protein kinase inhibitors was determined using the Clinical and Laboratory Science Institute microdilution protocol M-27A2. Biofilm antifungal activity was determined using the protocol of Pierce et al. and is reported as MIC50S (Pierce et al., Nat. Protoc. 3:1494-1500 (2008)). Disk diffusion assays were performed as described previously (Roelants et al., Microbiology 150:3289-304 (2004)).
Heterozygous diploid yeast mutants lacking one allele of the gene encoding a putative drug target are frequently hypersensitive to the effects of that drug. This is called drug-induced haploinsufficiency. Similarly, if a drug targets the products of two redundant genes, then deletion of one of those genes in a haploid yeast strain will hypersensitize the strain to that drug. […] Pkh1/2 phosphorylates two other AGC protein kinases involved in yeast cell wall integrity, Ypk1&2.

[2] = system: CWI pathway reporter Rlm1-lacZ; test: β-Galactosidase CWI pathway reporter assay (Rlm1-lacZ); assay type: cell-based; conditions: sub-inhibitory concentrations (1/2 MIC), S. cerevisiae
Method: Bars indicate mean fold change in Miller units of β-galactosidase activity relative to logarithmic phase cells without calcofluor or PKI. Error bars indicate standard deviation of three independent trials performed in triplicate. […] The percentage of cells with PI uptake was determined by fluorescence.
Logarithmic phase S. cerevisiae (BY4741) cells harboring the pRLM1-lacZ plasmid were transferred to a 96-well plate, and treated with Calcofluor white ([…])+/−protein kinase inhibitor at sub-inhibitory concentrations (1/2MIC). The cells were incubated at room temperature for 5 hours and processed for β-galactosidase activity using the ThermoScientific Yeast β-galactosidase kit according to the manufacturer's instructions (Pierce; Rockford, Ill.). β-galactosidase activity was determined by measuring OD420 using a SpectraMax Plate reader (Molecular Devices) and expressed as fold change in Miller units (nmole/mg/min) relative to untreated cells. Each experiment was performed in duplicate with three independent isolates.
The novel, antifungal PKIs identified in the primary screen were evaluated for their ability to block CWI pathway signaling using a reporter construct that contains two copies of the consensus binding site for the CWI-pathway-regulated transcription factor Rlm1 fused to the β-galactosidase gene (Jung et al., Mol. Microbiol. 46:781-9 (2002)). […]

Structure (SMILES): O=C1c2ccccc2-c2nc3nnnn3nc21.O=C1c2ccccc2-c2nn3nnnc3nc21 [KP-372-1]
- zone of inhibition versus wild type ([1]; S. cerevisiae pkh2D mutant, compared with wild type or pkh1D): larger zone of inhibition
- sensitivity versus wild type ([1]; S. cerevisiae ypk1D and ypk2D mutants): as sensitive to KP-372-1 as wild type
- Rlm1-lacZ reporter activity induced by Calcofluor white [2]: completely abolished reporter activity
